Format in all cases: cell-based
The subject of test [1] is E. coli sample (positive blood culture). The test is described as follows: ChroMIC automated colorimetric MIC assay directly from positive blood culture. The note with it: for MIC: Escherichia coli. On the procedure:
In order to prepare the contrast agent, sterile human whole blood (ZenBio, Research Triangle Park, N.C.) was stored at 4° C. and used within two weeks. […] For use as contrast, whole blood was diluted in sterile cation-adjusted Mueller Hinton broth (CAMHB; BD Biosciences, San Jose, Calif.) media (10% v/v).
Relating to an example colorimetric AST directly from positive blood culture —BacT/ALERT FA PLUS positive blood cultures were 500-fold diluted in CAMHB media and dispensed in the 96-well plate antibiotic panels. […] Final antibiotic concentrations ranged from approximately 0.03125 μg/mL to approximately 64 μg/mL along each row, with final dilution of blood cultures being 1000-fold. […] Wells H1, H9, and H10 are media-only negative controls, while wells H11 and H12 are no-antibiotic positive controls. […] ChroMIC ASTs were performed and compared (blinded) against both Vitek-2-determined MICs and vs. BMD. Each blood culture was also plated to retroactively determine inoculum size used.
Negative control wells with antibiotics and media only were allocated to ensure the sterility of media and antibiotics. Positive control wells were prepared to track bacterial growth without antibiotics and these controls were used in developing real-time automated analysis. After preparation of assays, the 96-well plates were covered with sterile sealing film (VWR International, Radnor, Pa.) and incubated at 37° C. for 18 hours with imaging as described below.
Example instruments used with the example colorimetric AST are disclosed herein. Four computer-controlled cameras (Raspberry Pi HQ) were connected to an ArduCam multicamera board in a Raspberry Pi 4B computer running the latest version of Raspian operating system. Within an incubator held at approximately 37° C., 96-well microtiter plates were held in 3D-printed holders, approximately 10 cm above the camera. A low distortion wide-angle lens was used to image microtiter plates from below, with LED illumination from above. Software collected images once every 15 minutes from each active camera over an 18-hour period. Images were analyzed both visually and by computer for red, green, and blue channel pixel intensities. Automated well detection was performed with OpenCV in python based on color value and the two most significant principal color components within each well were calculated and used to determine positive versus negative bacterial growth. […] SVM-derived probabilities were used to determine growth or no growth in each well. The left—most well in each row maintaining bright red color (no growth) was taken as the MIC.
ChroMIC assays were automated to acquire one image every 15 minutes over 18 hours. […] Wells can be automatically detected based on their color and the mean RGB color values can be taken from the average color of a 40×40 pixel area around each well centroid. Principal components using RGB values as input dimensions can be calculated for the wells in each image. […] Wells H1-H10 on each image and all wells (A1-H12) from the first hour (5 images—all before growth occurs) can be used as negative control wells. […] Since PCs are calculated for each image, all positive and negative controls are rotated into the current image PC space. A grid search can be performed to find the optimal SVM discriminant (FIG. 20B), and probabilities are used to assign growth (+) or no growth (−) for each well.
FIGS. 20-23 show aspects of automated real-time ChroMIC assay of an E. coli sample. An example of acquired images at different times (0 hours, 4 hours, 6 hours, 8 hours, 10 hours, 12 hours and 18 h) is shown in FIG. 19. […] This enables labels and MIC determinations for each antibiotic at each time point.

For test [2], the system named is E. coli strain Mu890. The test is described as follows: Standard broth microdilution (BMD), turbidity. As to conditions: validation of near IR experiment, 6×10^6 CFU/mL per well. On the procedure: This color change results from the growth and presence of viable bacteria. When bacteria are resistant to the given antibiotic concentration, the color change is clearly observed. […] Results were validated by comparing with the gold standard BMD (FIGS. 4A and 4B). The gold standard BDM requires 16 to 24 hours incubation of plates after isolation of pure bacteria from positive blood cultures. In this case, the BMD was done by subculturing a pure colony of Mu890 in 4 mL CAMHB for 3 hours, followed by OD-600 adjustment such that the final concentration of bacteria is 6×10^6 CFU/mL per well. The plate was incubated at 37° C. for 18 hours and the image was acquired (FIG. 4B).
Background: Broth dilution looks for growth in wells or tubes with falling amounts of substance.

Test [3] relates to E. coli strain Mu890. The test is described as follows: Rapid colorimetric AST in spiked human whole blood / blood culture medium (colour change, near IR absorbance). The note with it: 37° C.; for Susceptibility of Mu890 (colorimetric assay / near IR absorption): CLSI susceptible and resistant breakpoints, 2.55 × 10^4 CFU/mL in wells, 24 hours; for Susceptibility of Mu890 (colour change of blood): rapid colorimetric AST, CLSI breakpoint concentrations, 96-well plate, up to 24 hours incubation. From the text: (§1) The antibiotics concentration and the initial concentration of bacterial cells in the wells shown in FIG. 8A are tabulated in Table 3.

Test [4] relates to P. aeruginosa strain PA46. The experiment in a line: Standard broth microdilution (BMD). As to conditions: 6×10^6 CFU/mL per well. The method, then:
as §1
The bacterial density in the standard BMD method was 6×10^6 CFU/mL per well before incubation, while the bacterial density in the colorimetric assay before the incubation is given in Table 3.

Setting [5] is: real-time Bayesian updated MIC, 4 hour, read-out: MIC (4 hour).
[6] abbreviates: real-time Bayesian updated MIC, 6 hour, read-out: MIC (6 hour).
Setting [7] is: real-time Bayesian updated MIC, 8 hour, read-out: MIC (8 hour).
The mark [8] stands for this setting: real-time Bayesian updated MIC, 10 hour, read-out: MIC (10 hour).
The mark [9] stands for this setting: real-time Bayesian updated MIC, 12 hour, read-out: MIC (12 hour).
The mark [10] stands for this setting: real-time Bayesian updated MIC, 16 hour, read-out: MIC (16 hour).

In brackets after ≈: the same amount, converted by molar mass. Like-named read-outs stand apart in the source and are kept apart here. A value given as a limit tells only on which side of the number the result lay.

For orientation: MIC means the least concentration at which growth counts as inhibited. For `NCC[C@H](O)C(=O)N[C@@H]1C[C@H](N)[C@@H](O[C@H]2O[C@H](CN)[C@@H](O)[C@H](O)[C@H]2O)[C@H](O)[C@H]1O[C@H]1O[C@H](CO)[C@@H](O)[C@H](N)[C@H]1O` [Amikacin, amikacin], the MIC in test [1] (setting [5]) came out at 1 µg/mL (≈ 1.71 µM); in test [1] (setting [6]), 1 µg/mL (≈ 1.71 µM); in test [1] (setting [7]) it was 1 µg/mL (≈ 1.71 µM); in test [1] (setting [8]) it was 2 µg/mL (≈ 3.42 µM); in test [1] (setting [9]), 2 µg/mL (≈ 3.42 µM); in test [1] (setting [10]), 2 µg/mL (≈ 3.42 µM).
On to `CO/N=C(\C(=O)N[C@@H]1C(=O)N2C(C(=O)[O-])=C(C[N+]3(C)CCCC3)CS[C@H]12)c1csc(N)n1` [Cefepime, cefepime], for which the MIC in test [1] (4 h, read-out: MIC (4 hour)) is no more than 0.0312 µg/mL; in test [1] (6 h, read-out: MIC (6 hour)), no more than 0.0312 µg/mL; in test [1] (8 h, read-out: MIC (8 hour)), no more than 0.0312 µg/mL; in test [1] (10 h, read-out: MIC (10 hour)) it was no more than 0.0312 µg/mL; in test [1] (12 h, read-out: MIC (12 hour)) it was no more than 0.0312 µg/mL; in test [1] (16 h, read-out: MIC (16 hour)) it was no more than 0.0312 µg/mL.
`CC(C)(O/N=C(\C(=O)N[C@@H]1C(=O)N2C(C(=O)[O-])=C(C[n+]3ccccc3)CS[C@H]12)c1csc(N)n1)C(=O)O` [Ceftazidime, ceftazidime]: the “Susceptibility of Mu890 (standard BMD method)” value in the test on E. coli strain Mu890 [2] is “susceptible”. Further, the MIC was 0.25 µg/mL (≈ 0.457 µM) in test [1] (setting [5]); 0.25 µg/mL (≈ 0.457 µM) in test [1] (setting [6]); 0.125 µg/mL (≈ 0.229 µM) in test [1] (setting [7]); 0.125 µg/mL (≈ 0.229 µM) in test [1] (setting [8]); 0.125 µg/mL (≈ 0.229 µM) in test [1] (setting [9]); 0.125 µg/mL (≈ 0.229 µM) in test [1] (setting [10]). Besides, in the test on E. coli strain Mu890 [3], the “Susceptibility of Mu890 (colorimetric assay / near IR absorption)” value is “susceptible”. For the same compound, the “Susceptibility of Mu890 (colour change of blood)” value with E. coli strain Mu890 [3] is reported as “sensitive”.
For the compound `C[C@H]1COc2c(N3CCN(C)CC3)c(F)cc3c(=O)c(C(=O)O)cn1c23` [Levofloxacin, levofloxacin], the MIC in test [1] (setting [5]), in test [1] (setting [6]), in test [1] (setting [7]), in test [1] (setting [8]), in test [1] (setting [9]) and in test [1] (setting [10]) was no more than 0.0312 µg/mL in each case.
In the case of `C[C@@H](O)[C@H]1C(=O)N2C(C(=O)O)=C(S[C@@H]3CN[C@H](C(=O)N(C)C)C3)[C@H](C)[C@H]12` [Meropenem, meropenem], the “Susceptibility of Mu890 (standard BMD method)” value in the test on E. coli strain Mu890 [2] is listed as “susceptible”. Besides, the MIC in test [1] (setting [5]) is 0.0625 µg/mL (≈ 0.163 µM); in test [1] (setting [6]) it was no more than 0.0312 µg/mL; in test [1] (setting [7]) it was no more than 0.0312 µg/mL; in test [1] (setting [8]) it was no more than 0.0312 µg/mL; in test [1] (setting [9]) it was no more than 0.0312 µg/mL; in test [1] (setting [10]) it was no more than 0.0312 µg/mL. For the same compound, the “Susceptibility of Mu890 (colorimetric assay / near IR absorption)” value in the test with E. coli strain Mu890 [3] is listed as “susceptible”.
Turning to `NC[C@H]1O[C@H](O[C@H]2[C@H](O)[C@@H](O[C@H]3O[C@H](CO)[C@@H](O)[C@H](N)[C@H]3O)[C@H](N)C[C@@H]2N)[C@H](N)C[C@@H]1O` [Tobramycin, tobramycin], the “Susceptibility of Mu890 (standard BMD method)” value in the test with E. coli strain Mu890 [2] is reported as “susceptible”. Moreover, the MIC in test [1] (setting [5]) worked out at 0.5 µg/mL (≈ 1.07 µM); in test [1] (setting [6]), 0.5 µg/mL (≈ 1.07 µM); in test [1] (setting [7]), 0.5 µg/mL (≈ 1.07 µM); in test [1] (setting [8]), 0.5 µg/mL (≈ 1.07 µM); in test [1] (setting [9]) it was 1 µg/mL (≈ 2.14 µM); in test [1] (setting [10]) it was 1 µg/mL (≈ 2.14 µM). Further, in the test with E. coli strain Mu890 [3], the “Susceptibility of Mu890 (colorimetric assay / near IR absorption)” value was “susceptible”. Further, the “Susceptibility of Mu890 (colour change of blood)” value with E. coli strain Mu890 [3] was “sensitive”.
Consider `Cc1nnc(SCC2=C(C(=O)O)N3C(=O)[C@@H](NC(=O)Cn4cnnn4)[C@H]3SC2)s1` [cefazolin], for which the “Susceptibility of PA46 (standard BMD method)” value in test [4] is recorded as “resistant”.
Consider gentamicin, for which the “MIC (4 hour)” value in test [1] (real-time Bayesian updated MIC, 4 hour) came to 0.5 µg/mL. The “MIC (6 hour)” value in test [1] (real-time Bayesian updated MIC, 6 hour) is 0.5 µg/mL. Also, in test [1] (real-time Bayesian updated MIC, 8 hour), the “MIC (8 hour)” value is 0.5 µg/mL. For the same compound, the “MIC (10 hour)” value in test [1] (real-time Bayesian updated MIC, 10 hour) is 1 µg/mL. In addition, the “MIC (12 hour)” value in test [1] (real-time Bayesian updated MIC, 12 hour) is 1 µg/mL. Moreover, in test [1] (real-time Bayesian updated MIC, 16 hour), the “MIC (16 hour)” value was found to be 1 µg/mL.

The record behind these values is US20230183774A1, “COLORIMETRIC ASSAY FOR HIGH THROUGHPUT, FACILE AND RAPID ANTIMICROBIAL SUSCEPTIBILITIES TESTING” (Georgia Tech Research Corporation, priority 2021, published 2023).
